Patent US20260376293A1, “METHODS FOR STUDYING GPR158 PHARMACOLOGY AND IDENTIFICATION OF ITS LIGANDS” (UNIVERSITY OF FLORIDA RESEARCH FOUNDATION, INCORPORATED, priority 2022, published 2026)

System: layer V pyramidal neurons
Test: Whole cell recordings, layer V prelimbic cortex neurons, WT mice
Type: cell-based, mouse
Conditions: glycine 1 mM
Method: FIGS. 15A-15H. Effect of glycine and taurine on excitability of layer V neurons and membrane properties of layer II/III neurons in wild type and GPR158 knockout mice. A) Representative traces of voltage responses to a 200 pA current ramp injection obtained from layer V pyramidal neurons in WT mice under control conditions and during bath application of glycine (1 mM). B) Quantification of glycine effects on neuronal excitability by number of action potentials fired in response to 200 pA current ramp under control condition and glycine application (n=4 neurons/3 mice). Nonparametric t-test; Wilcoxon test, ns=p>0.05. C) Quantification of glycine effects on neuronal excitability by rheobase current under control condition and glycine application (n=4 neurons/3 mice). Nonparametric t-test; Wilcoxon test, ns=p>0.05. […]
Electrophysiological recordings from layer II-III and layer V neurons of the prelimbic cortex were performed with C57Bl6 mice of either sex aged between 6-12 weeks. […] The Rheobase current was defined as the minimum current necessary to elicit the first AP and changes in neuronal excitability were assessed by counting the number of spikes evoked in response to 1-s depolarizing ramp ranging from 0 to 200 pA with a 20-s intertrial interval. […]

For `NCC(=O)O` [glycine], the “intrinsic excitability of layer V neurons” value was “did not produce any changes” and the resting membrane potential (layer V) was “ns”.
